Laboratory results reported in patent US11000033B2, “Ketone or oxime compound, and herbicide” (NISSAN CHEMICAL CORPORATION, priority 2014, dated 2021).

Legend:
Format in all cases: in vivo
Conditions in all cases: application herbicide amount 320 g/ha
[1] = system: directly sowed rice plant; assay: Test Example 3: effect on crop by foliage application, Wagner pot (symbol b)
Protocol: (§1) Herbicidal Effect Test by Foliage Application
After alluvial soil was placed into 1/10000 are of Wagner pot, water was poured and mixed to form a submerged condition having a water depth of 0.1 cm to 0.5 cm. Seeds of Echinochloa crus-galli var. crus-galli, Leptochloa chinensis, Cyperus difformis, and rice were sowed and the pot was placed in the greenhouse of 25° C. to 30° C. to grow the plants.

Leptochloa chinensis = assay: Test Example 3: herbicidal effect by foliage application, Wagner pot (symbol D)
Protocol: as §1
(§2) After alluvial soil was placed into 1/10000 are of Wagner pot, water was poured and mixed to form a submerged condition having a water depth of 0.1 cm to 0.5 cm. Seeds of Echinochloa crus-galli var. crus-galli, Leptochloa chinensis, Cyperus difformis, and rice were sowed and the pot was placed in the greenhouse of 25° C. to 30° C. to grow the plants. After the plants were grown for 14 days, the emulsion agent of the compound of the present invention prepared in accordance with Formulation Example 2 was diluted with water so as to be a predetermined herbicide amount and the diluted emulsion agent was uniformly applied to a foliage part with a small-size spray. 3 weeks later from the herbicide application, the effect to each plant was investigated in accordance with the criteria of Test Example 1.

[2] = system: Echinochloa crus-galli var. crus-galli; assay: Test Example 3: herbicidal effect by foliage application, Wagner pot (symbol H)
Protocol: as §1, §2

Cyperus difformis = assay: Test Example 3: herbicidal effect by foliage application, Wagner pot (symbol E)
Protocol: as §1, §2

[3] = system: Echinochloa oryzacola Vasing.; assay: Test Example 1: herbicidal activity, application before weed generation in submerged conditions (symbol A)
From the text: (§3) Herbicidal Activity Test by Application Before Weed Generation in Submerged Conditions
(§4) After alluvial soil was placed into 1/10000 are of Wagner pot, water was poured and mixed to form a submerged condition having a water depth of 4 cm. Seeds of Echinochloa oryzacola Vasing., Scirpus juncoides, and Monochoria vaginalis were sowed in a mixed manner in the above pot and thereafter 2.5 leaf stage rice plant seedlings were transplanted thereto. On the day of sowing seeds, the emulsion agent of the compound of the present invention prepared in accordance with Formulation Example 2 was diluted with water so as to be a predetermined herbicide amount and the diluted emulsion agent was applied to the surface of the water. The pot was placed in a greenhouse of 25° C. to 30° C. to grow plant. 3 weeks later from the herbicide application, the effect to each plant was investigated in accordance with the following criteria.
(§5) 5 Herbicidal ratio of 90% or more (almost completely withered)
(§6) 4 Herbicidal ratio of 70% or higher and lower than 90%
(§7) 3 Herbicidal ratio of 40% or higher and lower than 70%
(§8) 2 Herbicidal ratio of 20% or higher and lower than 40%
(§9) 1 Herbicidal ratio of 5% or higher and lower than 20%
(§10) 0 Herbicidal ratio of 5% or lower (almost no effect)

transplanted rice plant = assay: Test Example 1: effect on crop, application before weed generation in submerged conditions (symbol a)
Protocol: as §3
as §4, with “On the day of sowing seeds, the emulsion agent of the compound of the present invention prepared in accordance with Formulation Example 2 was diluted with water so as to be a predetermined herbicide amount and the diluted emulsion agent was applied to the surface of the water.” left out
as §5, §6, §7, §8, §9, §10

Monochoria vaginalis = assay: Test Example 1: herbicidal activity, application before weed generation in submerged conditions (symbol C)
From the text: as §3, §4, §5, §6, §7, §8, §9, §10

Scirpus juncoides = assay: Test Example 1: herbicidal activity, application before weed generation in submerged conditions (symbol B)
From the text: as §3, §4, §5, §6, §7, §8, §9, §10

Row | SMILES | effect on crop b (directly sowed rice plant), grade 0-5 [1] | herbicidal effect on D (Leptochloa chinensis), grade 0-5 (Leptochloa chinensis) | herbicidal effect on H (Echinochloa crus-galli var. crus-galli), grade 0-5 [2] | herbicidal effect on E, grade 0-5 (Cyperus difformis) | b (directly sowed rice plant) effect on crop grade ([1]; Table 24) | D (Leptochloa chinensis) herbicidal effect grade (Leptochloa chinensis; Table 24) | H (Echinochloa crus-galli var. crus-galli) herbicidal effect grade ([2]; Table 24) | E herbicidal effect grade (Cyperus difformis; Table 24) | Herbicidal effect grade, A: Echinochloa oryzacola Vasing. [3] | Effect grade on crop, a: transplanted rice plant (transplanted rice plant) | Herbicidal effect grade, C: Monochoria vaginalis (Monochoria vaginalis) | Herbicidal effect grade, B: Scirpus juncoides (Scirpus juncoides)
1 | CON=C(CC1CC(O)=C(c2c(C)cc(C)cc2C)C1=O)c1ccc(C)cc1 (centres unmarked) [1-164] | 4 (Herbicidal ratio of 70% or higher and lower than 90%) | 3 (Herbicidal ratio of 40% or higher and lower than 70%) | 2 (Herbicidal ratio of 20% or higher and lower than 40%) | 0 (Herbicidal ratio of 5% or lower (almost no effect)) | – | – | – | – | – | – | – | –
2 | CC(=O)CC1CC(O)=C(c2c(C)cc(OCc3ccncc3)cc2C)C1=O (centres unmarked) [7-021] | 0 (Herbicidal ratio of 5% or lower (almost no effect)) | 2 (Herbicidal ratio of 20% or higher and lower than 40%) | 2 (Herbicidal ratio of 20% or higher and lower than 40%) | 0 (Herbicidal ratio of 5% or lower (almost no effect)) | – | – | – | – | – | – | – | –
3 | CON=C(C)CC1CC(OC(=S)N(C)C)=C(c2c(C)cc(C)cc2C)C1=O (centres unmarked) [1-141] | 1 (Herbicidal ratio of 5% or higher and lower than 20%) | 0 (Herbicidal ratio of 5% or lower (almost no effect)) | 2 (Herbicidal ratio of 20% or higher and lower than 40%) | – | – | – | – | – | – | – | – | –
4 | CON=C(C)CC1CC(OC(=O)N(c2ccccc2)c2ccccc2)=C(c2c(C)cc(C)cc2C)C1=O (centres unmarked) [1-157] | 0 (Herbicidal ratio of 5% or lower (almost no effect)) | 4 (Herbicidal ratio of 70% or higher and lower than 90%) | 0 (Herbicidal ratio of 5% or lower (almost no effect)) | – | – | – | – | – | – | – | – | –
5 | COC(=O)C(C(C)=O)C1CC(O)=C(c2c(F)cc(Br)cc2OC)C1=O (centres unmarked) [7-028] | – | – | – | – | 0 (Herbicidal ratio of 5% or lower (almost no effect)) | 0 (Herbicidal ratio of 5% or lower (almost no effect)) | 0 (Herbicidal ratio of 5% or lower (almost no effect)) | 0 (Herbicidal ratio of 5% or lower (almost no effect)) | – | – | – | –
6 | CON=C(CCl)CC1CC(O)=C(c2c(C)cc(C)cc2C)C1=O (centres unmarked) [1-084] | 1 (Herbicidal ratio of 5% or higher and lower than 20%) | 0 (Herbicidal ratio of 5% or lower (almost no effect)) | 2 (Herbicidal ratio of 20% or higher and lower than 40%) | 0 (Herbicidal ratio of 5% or lower (almost no effect)) | – | – | – | – | – | – | – | –
7 | CON=C(C)CC1CC(O)=C(c2c(C)cc(OCc3ccncc3)cc2C)C1=O (centres unmarked) [6-070] | 0 (Herbicidal ratio of 5% or lower (almost no effect)) | 4 (Herbicidal ratio of 70% or higher and lower than 90%) | 0 (Herbicidal ratio of 5% or lower (almost no effect)) | 0 (Herbicidal ratio of 5% or lower (almost no effect)) | – | – | – | – | – | – | – | –
8 | CC(=O)CC1CC(O)=C(c2c(C)cc(C=Cc3ccccc3)cc2C)C1=O (centres unmarked) [7-023] | 0 (Herbicidal ratio of 5% or lower (almost no effect)) | 5 (Herbicidal ratio of 90% or more (almost completely withered)) | 0 (Herbicidal ratio of 5% or lower (almost no effect)) | 0 (Herbicidal ratio of 5% or lower (almost no effect)) | – | – | – | – | 2 (Herbicidal ratio of 20% or higher and lower than 40%) | 1 (Herbicidal ratio of 5% or higher and lower than 20%) | 0 (Herbicidal ratio of 5% or lower (almost no effect)) | 0 (Herbicidal ratio of 5% or lower (almost no effect))
9 | CON=C(CCl)CC1CC(OC)=C(c2c(C)cc(C)cc2C)C1=O (centres unmarked) [1-077] | – | – | – | – | – | – | – | – | 1 (Herbicidal ratio of 5% or higher and lower than 20%) | 1 (Herbicidal ratio of 5% or higher and lower than 20%) | 0 (Herbicidal ratio of 5% or lower (almost no effect)) | 2 (Herbicidal ratio of 20% or higher and lower than 40%)
